Measurements reported in patent US5756491A, “Antiviral cobalt-organic compounds” (priority 1991, dated 1998).

Tests used:
HSV-1 McKrae Strain [1] = assay: Direct virucidal efficacy against HSV-1 on HFF monolayers; type: cell-based; conditions: for effective virucidal concentration IC50 / effective virucidal concentration IC90: HSV-1
Protocol: (§1) HSV-1 McKrae Strain was diluted to a final concentration of 10^5 PFU/ml in minimal essential medium (MEM). Hereinafter, this dilution is referred to as the HSV-1 Suspension for convenience.
(§2) With sufficient stirring, all the compounds completely dissolved.
Each of the drug solutions were mixed with the HSV-1 Suspension in a 1:1 ratio. The drug and HSV-1 Suspension mixture was incubated at 37° C. for thirty minutes with agitation every ten minutes. After the incubation, fifty microliter aliquots were overlaid onto triplicate confluent human foreskin fibroblast (HFF) cell monolayers. The inoculum was absorbed for thirty minutes and then a medium containing the appropriate drug concentration in MEM was added to the monolayers to a final volume of 0.5 milliliters per culture-well. The monolayers were incubated at 37° C. The developing HSV-1 Cytopathology was monitored daily for two days by inverted light microscopy. Titers were calculated by multiple regression analysis. All data is presented as the average PFU/ml reduction at 24 and/or 48 hours after inoculation (PI).
1. HSV-1 inoculated, non-compound treated HFF monolayers were included as "positive controls"; and […]

RE strain HSV-1 = assay: HSV-1 recovery from tear film, cornea and trigeminal ganglia of treated rabbits; type: in vivo, NZW rabbit; conditions: Example 4
Source text: The specified number of NZW rabbits (1.5-2.0 kg) were used. Animals were received at least two days prior to inoculation to allow them to accommodate to the conditions in the vivarium facility. This conditioning of the animals prior to inoculation minimizes animal variability. After the accommodation, the animals received a slit-lamp examination to exclude any animals with pre-existing anterior segment ocular defects. Animals were bi-laterally inoculated by intrastromal injection of 10^5 PFU RE strain HSV-1. The animals were then replaced individually into cages.
[…] This was carried out by obtaining tear film by swabbing the lower and upper conjunctival sacs and retaining the swab in the nasal fornix for 10 seconds. The swabs were eluted individually in HBSS. 50 μl aliquots of the virus-HBSS eluate were absorbed under confluent HFF cell monolayers for 5 minutes. The monolayers were hydrated with MEM, incubated at 37° C. and observed daily for 1 to 2 weeks to detect developing cytopathology consistent with HSV infection (HSV CPE).
(§3) On day 10 PI, the animals were sacrificed, the corneal epithelium was scraped from the eyes and epithelial and corneal stromal cultures were preformed on HFF cell monolayers. The separation of epithelial virus from deeper stromal virus infection allows for analysis of HSV in these distinct corneal layers. Corneal epithelial and stromal co-cultures were evaluated daily by inverted light microscopy.
At sacrifice, trigeminal ganglia were removed, washed in HBSS, minced and floated over duplicate HFF cell monolayers. The cell co-cultures were monitored by inverted light microscopy for 2 weeks. Negative cultures were blind passaged twice at 7 day intervals. Detection of HSV CPE in the whole-cell co-cultures was scored either positive or negative. HSV recovery from inventive compound-treated, TFT-treated and placebo-treated trigeminal ganglia was compared and differences in recovery rates analyzed.
as §3, with “7” for “10”, “performed” for “preformed”

HSV-1 McKrae Strain [2] = assay: Intracellular antiviral activity against HSV-1 in HFF monolayers; type: cell-based; conditions: for antiviral efficacy (HSV-1 titer): Experiment 7 (Table 18), 24 h PI
Protocol: as §1, §2
HFF cell monolayers were inoculated with the HSV-Suspension prepared as above by absorption for thirty minutes at 37° C. After absorption of the virus, the inoculum was aspirated from the cell monolayers and the HSV-1 infected monolayers were rehydrated with medium containing the appropriate concentration of the solution of the compound by adding 500 microliters of each compound concentration to triplicate HSV-1 infected monolayers. All monolayers were incubated at 37° C. The developing HSV-1 cytopathology was monitored daily for two days by inverted light microscopy and titers were calculated by multiple […] analysis. For the intracellular anti-viral activity, "cell monolayer controls" were obtained using sham inoculated non-treated HFF cell monolayers along with the drug treated monolayers. "Positive controls" were obtained by using HSV-1 inoculated non-CTC compound treated HFF monolayers.

VZV = assay: In vitro assay with VZV on HFF monolayers; type: cell-based; conditions: for virucidal efficacy (VZV titer): Table 20, 7 days PI
Protocol: VZV was grown to a CPE level in vitro assays with VZV of 3-4+ on HFF cell monolayers. The VZV was scraped from the flask, centrifuged and the cell pellet was resuspended in 10 ml of complete medium. One hundred to 200 μl of the VZV cell associated inoculum was inoculated onto confluent HFF cell monolayers by absorption for 60 minutes at 37° C. After absorption of the virus, the inoculum was aspirated from the cell monolayers.
The VZV-infected monolayers were rehydrated with medium containing the appropriate concentrations of compounds to be tested. All monolayers were incubated at 37° C. Development of VZV cytopathology was monitored daily for 7 days by inverted light microscopy. Titers were calculated by multiple regression analysis.
Sham-inoculated, non-treated HFF cell monolayers were included among with the drug-treated monolayers as cell monolayer controls.
VZV inoculated, non-treated HFF monolayers were included as positive controls.

HFF cells = assay: Neutral red uptake toxicity; type: cell-based, human; conditions: stationary cells

## CC([O-])=CC(C)=NCCN=C(C)C=C(C)[O-].[Cl-].[Co+3].c1c[nH]cn1.c1c[nH]cn1 [Compound 82]
HSV-1 McKrae Strain [1]; Experiment 1 (Table 2), 24 h PI, 0.001 mg/ml
  virucidal efficacy (HSV-1 titer): 10^5 PFU/ml
HSV-1 McKrae Strain [1]; Experiment 1 (Table 2), 24 h PI, 0.1 mg/ml
  virucidal efficacy (HSV-1 titer): 10^2 PFU/ml
HSV-1 McKrae Strain [1]; Experiment 1 (Table 2), 24 h PI, 10 mg/ml
  virucidal efficacy (HSV-1 titer): 0 PFU/ml
HSV-1 McKrae Strain [1]; Experiment 1 (Table 2), 24 h PI, .01 mg/ml
  virucidal efficacy (HSV-1 titer): 10^4 PFU/ml
HSV-1 McKrae Strain [1]; Experiment 1 (Table 2), 48 h PI, 1 mg/ml
  virucidal efficacy (HSV-1 titer): 10^5 PFU/ml
HSV-1 McKrae Strain [1]; Experiment 1 (Table 2), 48 h PI, 10 mg/ml
  virucidal efficacy (HSV-1 titer): O/T
HSV-1 McKrae Strain [1]; Experiment 1 (Table 3)
  effective virucidal concentration IC50: 100 µg/mL
  effective virucidal concentration IC90: 1000 µg/mL
HSV-1 McKrae Strain [1]; Experiment 1 comment, less than that observed for 23 and 76
  virucidal efficacy (IC50) compared with 23 and 76: one order of magnitude less
HSV-1 McKrae Strain [1]; Experiment 2 (Table 5), 24 h PI, 0.001 mg/ml
  virucidal efficacy (HSV-1 titer): 10^4 PFU/ml
HSV-1 McKrae Strain [1]; Experiment 2 (Table 5), 24 h PI, 0.1 mg/ml
  virucidal efficacy (HSV-1 titer): 10^2 PFU/ml
HSV-1 McKrae Strain [1]; Experiment 2 (Table 5), 24 h PI, 10 mg/ml
  virucidal efficacy (HSV-1 titer): 0 PFU/ml
HSV-1 McKrae Strain [1]; Experiment 2 (Table 5), 48 h PI, 1 mg/ml
  virucidal efficacy (HSV-1 titer): 10^5 PFU/ml
HSV-1 McKrae Strain [1]; Experiment 2 (Table 6)
  effective virucidal concentration IC50: 100 µg/mL
  effective virucidal concentration IC90: 1000 µg/mL
RE strain HSV-1
  recovery of HSV-1 in tear film: reduced the recovery of HSV-1 in tear film

## CC(=NCCN=C(C)C(Cl)=C(C)[O-])C(Cl)=C(C)[O-].[Br-].[Co+3].c1c[nH]cn1.c1c[nH]cn1 [Compound 93]
HSV-1 McKrae Strain [1]; Experiment 4 (Table 9), 24 h PI, Run 1, 0.001 mg/ml
  virucidal efficacy (HSV-1 titer): 10^5 PFU/ml
HSV-1 McKrae Strain [1]; Experiment 4 (Table 9), 24 h PI, Run 1, 0.5 mg/ml
  virucidal efficacy (HSV-1 titer): 10^2 PFU/ml
HSV-1 McKrae Strain [1]; Experiment 4 (Table 9), 24 h PI, Run 1, 1 mg/ml
  virucidal efficacy (HSV-1 titer): 0 PFU/ml
HSV-1 McKrae Strain [1]; Experiment 4 (Table 9), 24 h PI, Run 1, 5 mg/ml
  virucidal efficacy (HSV-1 titer): 0 PFU/ml
HSV-1 McKrae Strain [1]; Experiment 4 (Table 9), 24 h PI, Run 2, 0.01 mg/ml
  virucidal efficacy (HSV-1 titer): 10^2 PFU/ml
HSV-1 McKrae Strain [1]; Experiment 4 (Table 9), 24 h PI, Run 2, 0.1 mg/ml
  virucidal efficacy (HSV-1 titer): 0 PFU/ml
HSV-1 McKrae Strain [1]; Experiment 4 (Table 9), 24 h PI, Run 2, 0.5 mg/ml
  virucidal efficacy (HSV-1 titer): 0 PFU/ml
HSV-1 McKrae Strain [1]; Experiment 4 (Table 9), 24 h PI, Run 2, 1 mg/ml
  virucidal efficacy (HSV-1 titer): 0 PFU/ml
HSV-1 McKrae Strain [1]; Experiment 4 (Table 9), 24 h PI, Run 2, 5 mg/ml
  virucidal efficacy (HSV-1 titer): 0 PFU/ml
HSV-1 McKrae Strain [1]; Experiment 4 (Table 11)
  effective virucidal concentration IC50: 500 µg/mL
  effective virucidal concentration IC90: > 1000 µg/mL
HSV-1 McKrae Strain [1]; Experiment 6 (Table 16), 24 h PI, 0.1 mg/ml
  virucidal efficacy (HSV-1 titer): 10^2 PFU/ml
HSV-1 McKrae Strain [1]; Experiment 6 (Table 16), 24 h PI, 0.5 mg/ml
  virucidal efficacy (HSV-1 titer): 0 PFU/ml
HSV-1 McKrae Strain [1]; Experiment 6 (Table 16), 24 h PI, 1 mg/ml
  virucidal efficacy (HSV-1 titer): 0 PFU/ml
HSV-1 McKrae Strain [1]; Experiment 6 (Table 17)
  effective virucidal concentration IC50: 100 µg/mL
HSV-1 McKrae Strain [1]; Experiment 6 comment, reduction in toxicity resulted in it
  efficacy in virucidal assay (comment): reduction in efficacy
HSV-1 McKrae Strain [2]; 0.001 mg/ml
  antiviral efficacy (HSV-1 titer): 10^5 PFU/ml
HSV-1 McKrae Strain [2]; 0.5 mg/ml
  antiviral efficacy (HSV-1 titer): 10^2 PFU/ml
HSV-1 McKrae Strain [2]; 1 mg/ml
  antiviral efficacy (HSV-1 titer): 0 PFU/ml
HSV-1 McKrae Strain [2]; Experiment 7 (Table 19), HSV-1
  effective virucidal concentration IC50: 500 µg/mL
VZV; 0.001 mg/ml
  virucidal efficacy (VZV titer): 10^4 PFU/ml
VZV; 0.01 mg/ml
  virucidal efficacy (VZV titer): 10^2 PFU/ml
VZV; 0.1 mg/ml, toxicity observation questionable
  virucidal efficacy (VZV titer): T?
VZV; Table 21, VZV
  effective virucidal concentration IC50: 10 µg/mL
HFF cells
  toxicity IC50, neutral red uptake: 27.3 MCG/ML
